Experimental data as given in the supplement of paper PMC5412046.
Structures can show the parent of a compound that is named as a salt.

Tests used:
[1] = test system: SB.msgc-1; assay: area under the dose-response curve of % viability (trapezoidal, 11 doses) (% viability x log10 concentration); higher = less cytotoxic; settings: SB.msgc-1 (sporadic gastric cancer)
How it was run: (§1)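 Patient-derived gastric cancer cells, hereditary or sporadic, were plated at 500 cells in 5 μL medium per well of a 1536-well plate and given 23 nL of compound in DMSO by pintool across 11 threefold dilutions. The top concentration was recorded for each compound. After 48 h, CellTiter-Glo was added for 30 min at room temperature and luminescence was read on a ViewLux. Values are viability normalised to DMSO, taken either at the highest concentration or as trapezoidal area under the curve.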

[2] = test system: SB.mhdgc-1; assay: as above; settings: SB.mhdgc-1 (hereditary c.1380delA CDH1 gastric cancer)
How it was run: as §1

[3] = test system: SB.msgc-1; assay: viability at highest tested concentration (MAXR) relative to DMSO; higher = less cytotoxic; settings: SB.msgc-1 (sporadic gastric cancer)
How it was run: as §1

[4] = test system: SB.mhdgc-1; assay: as above; settings: SB.mhdgc-1 (hereditary c.1380delA CDH1 gastric cancer)
How it was run: as §1

Row | Compound | area under the dose-response curve [1] | area under the dose-response curve [2] | viability [3] [%] | viability [4] [%]
1 | CC(C)[C@H](N)C(=O)OCCOC[N]1C=NC2=C1\N=C(N)/NC2=O [Valaciclovir] (top concentration 46.0829 µM) | 508 | 528 | 94.6 | 110
2 | C[C@](O)(CS(=O)(=O)c1ccc(F)cc1)C(=O)Nc1ccc(C#N)c(C(F)(F)F)c1 [(R)-Bicalutamide] (top concentration 46.0829 µM) | 377 | 301 | 3.76 | 1.24
3 | CN(C)CCCC1(c2ccc(F)cc2)OCc2cc(C#N)ccc21 (centres undefined) [Citalopram hydrobromide] (top concentration 46.0829 µM) | 330 | 483 | 36.7 | 55.1
4 | CC(C)c1ccc2c(c1)c(SC(C)(C)C)c(CC(C)(C)C(=O)[O-])n2Cc1ccc(Cl)cc1 [MK-886] (top concentration 46.0829 µM) | 331 | 473 | 19 | 25.9
5 | Cc1cnc(NC(=O)Nc2cc(Br)c(C)cc2OC[C@@H]2CNCCO2)cn1 [Rabusertib] (top concentration 46.0829 µM) | 407 | 428 | 35.8 | 2.99
6 | C/C=C1\C2C=C(C)CC1(N)c1ccc(=O)[nH]c1C2 (centres undefined) [Huperizine A] (top concentration 46.0829 µM) | 571 | 584 | 117 | 120
7 | CN(C)c1nc(Cc2ccc(NC(=O)c3ccc4ccccc4c3)cc2)nc(Cl)c1CC(=O)O [AP-768] (top concentration 46.0829 µM) | 556 | 509 | 112 | 95.4
8 | COc1cc(Nc2ncc(F)c(Nc3ccc4c(n3)NC(=O)C(C)(C)O4)n2)cc(OC)c1OC [R406] (top concentration 46.0829 µM) | 491 | 477 | 42 | 49.5
9 | CC1=CC=C(C=C1)\C2=N\C3=CC=C(Cl)C=C3OC2 [AR7] (top concentration 46.0829 µM) | 446 | 506 | 35.4 | 39.3
10 | O=C1NC(=O)/C(=C/c2ccc3c(c2)OC(F)(F)O3)S1 (top concentration 46.0829 µM) | 467 | 453 | 45.3 | 22.1
11 | C[C@@H](N)C1CC[C@@H](CC1)C(=O)NC2=CC=NC=C2 (some centres undefined) (top concentration 46.0829 µM) | 577 | 494 | 108 | 83.4
12 | O=C(CCCCCCC(=O)Nc1cccnc1)NO [Pyroxamide] (top concentration 46.0829 µM) | 385 | 466 | 6.06 | 55.4
13 | COc1cc2ncnc(Nc3ccc(F)c(Cl)c3)c2cc1NC(=O)/C=C/CN1CCCCC1 [Dacomitinib] (top concentration 46.0829 µM) | 230 | 425 | 0.19 | 1.99
14 | CC(=O)C1=C(O)C2(C)C(=CC1=O)Oc1c(C(C)=O)c(O)c(C)c(O)c12 (single isomer, unassigned; (+)) [(+)-Usniacin] (top concentration 46.0829 µM) | 557 | 539 | 113 | 115
15 | CC(C)(C)c1[nH]cnc1/C=c1\[nH]c(=O)/c(=C/c2ccccc2)[nH]c1=O [Plinabulin] (top concentration 92.1659 µM) | 227 | 327 | 2.47 | 3.33
16 | Clc1ccc(COC(Cn2ccnc2)c2ccc(Cl)cc2Cl)c(Cl)c1 (centres undefined) [Miconazole nitrate] (top concentration 46.0829 µM) | 494 | 495 | 46.2 | 49.5
17 | COC1=CC(=C2C(=O)N(COC/3=C/C(=O)N4\C=C/C=C(OCCN5CCCCC5)\C4=N3)[S+]([O-])(=O)C2=C1)C(C)C (top concentration 46.0829 µM) | 478 | 475 | 39.7 | 2.92
18 | CC/1=C(\CCN2CCC(CC2)C3=NOC4=C3C=CC(=C4)F)C(=O)N/5CCCCC5=N1 (top concentration 46.0829 µM) | 506 | 402 | 81.5 | 65.9
19 | NC\1=N\C(=O)N(\C=C1F)[C@H]2C[C@H](O)[C@@H](CO)O2 (top concentration 46.0829 µM) | 369 | 229 | 47.4 | 32.6
20 | CC(C)[C@H]1C(=O)N[C@H](CO)Cc2c[nH]c3cccc(c23)N1C [(-)-Indolactam V] (top concentration 46.0829 µM) | 402 | 504 | 67.3 | 115
21 | Cc1cc(OCCC[S+](C)(=O)[O-])cc(C)c1-c1cccc(COc2ccc3c(c2)OC[C@H]3CC(=O)O)c1 [TAK-875] (top concentration 46.0829 µM) | 488 | 545 | 49 | 82.2
22 | CCCCC(C=O)NC(=O)C(CC(C)C)NC(=O)OCc1ccccc1 (centres undefined) [Calpeptin] (top concentration 46.0829 µM) | 488 | 507 | 83.5 | 98.5
23 | CCCCN1CCC(CNC(=O)c2c3n(c4ccccc24)CCCO3)CC1 [Piboserod hydrochloride] (top concentration 46.0829 µM) | 424 | 400 | 20.7 | 20.6

Row | Compound | area under the dose-response curve [1] | area under the dose-response curve [2] | viability [3] [%] | viability [4] [%]
24 | CC\1=C/C=C\C=[N]1[Pt](N)(Cl)Cl [Picoplatin] (top concentration 46.0829 µM) | 534 | 538 | 106 | 78
25 | COc1cc(NC(=O)c2ccc(-c3ccc(Cl)cc3)o2)cc(OC)c1 (top concentration 46.0829 µM) | 457 | 379 | 3.84 | 3.96
26 | Nc1ncnc2c1nc(Cl)n2[C@@H]1O[C@H](CO)[C@@H](O)[C@H]1O [8-Cl-Ado] (top concentration 46.0829 µM) | 503 | 518 | 38 | 17.6
27 | Cn1cc(-c2ccc3nnc(Sc4ccc5ncccc5c4)n3n2)cn1 [SGX-523] (top concentration 46.0829 µM) | 502 | 483 | 61.2 | 32.5
28 | COC1=CC=C(C=C1)C/2=C(OC3O[C@@H](C)[C@H](O)[C@@H](O)[C@H]3O)/C(=O)C4=C(O2)C(=C(OC5O[C@H](CO)[C@@H](O)[C@H](O)[C@H]5O)C=C4O)CC=C(C)C (some centres undefined) [Icariin] (top concentration 46.0829 µM) | 497 | 475 | 31.4 | 13.3
29 | CC(C)c1cnn2c(NCc3ccccc3)cc(N[C@@H](CO)[C@H](O)CO)nc12 [BS-194] (top concentration 46.0829 µM) | 389 | 428 | 34 | 57.3
30 | Cl.Cl.Cl.O[C@@H](COc1cccc2ncccc12)CN1CCN([C@@H]2c3ccccc3[C@@H]3[C@H](c4ccccc42)C3(F)F)CC1 [Zosuquidar trihydrochloride] (top concentration 46.0829 µM) | 304 | 416 | 9.33 | 3.66
31 | COc1cc(Nc2ncc(F)c(Nc3ccc4c(n3)N(COP(=O)(O)O)C(=O)C(C)(C)O4)n2)cc(OC)c1OC [Fostamatinib disodium] (top concentration 46.0829 µM) | 411 | 408 | 31 | 6.16
32 | COC(=O)[C@H](c1ccccc1Cl)N1CCc2sccc2C1 [Clopidogrel bisulfate] (top concentration 46.0829 µM) | 542 | 478 | 103 | 82
33 | N#CC1(c2ccc(NC(=O)c3cccnc3NCc3ccncc3)cc2)CCCC1 [Apatinib] (top concentration 46.0829 µM) | 513 | 528 | 57.4 | 76.5
34 | CCOc1cc(N)c(Cl)cc1C(=O)NCC1CN(Cc2ccc(F)cc2)CCO1 (centres undefined) [Mosapride citrate] (top concentration 46.0829 µM) | 514 | 572 | 89.2 | 147
35 | Nc1nc(F)nc2c1ncn2[C@@H]1O[C@H](CO)[C@@H](O)[C@H]1O [2-Fluoroadenosine] (top concentration 46.0829 µM) | 394 | 416 | 27.3 | 44.5
36 | COc1cc2c(cc1O)CCC1C2CC[C@@]2(C)C1CC[C@@H]2O (some centres undefined) [2-Methoxyestradiol] (top concentration 46.0829 µM) | 538 | 526 | 87 | 82.1
37 | CN(C(Cc1ccc(O[S+](=O)([O-])c2cccc3cnccc23)cc1)C(=O)N1CCN(c2ccccc2)CC1)[S+](=O)([O-])c1cccc2cnccc12 (centres undefined) [KN-62] (top concentration 46.0829 µM) | 459 | 374 | 54.6 | 36.3
38 | O=C(NC1CCNCC1)c1n[nH]cc1NC(=O)c1c(Cl)cccc1Cl [AT-7519] (top concentration 46.0829 µM) | 403 | 411 | 40.8 | 67.2
39 | CC(C)(C)NC(=O)Nc1cccc(Nc2ncc(F)c(NC(C)(C)CO)n2)c1 [Bayer-18] (top concentration 46.0829 µM) | 514 | 478 | 51.1 | 114
40 | O=C(CCCN1CCC(O)(c2ccc(Cl)cc2)CC1)c1ccc(F)cc1 [Haloperidol] (top concentration 46.0829 µM) | 530 | 497 | 97 | 34
41 | O=C1Nc2cc(Br)ccc2/C1=C1/Nc2ccccc2/C1=N\O [BIO] (top concentration 46.0829 µM) | 474 | 407 | 15.3 | 2.33
42 | O=C(O)CCNC(=O)c1ccc(/N=N/c2ccc(O)c(C(=O)O)c2)cc1 [Balsalazide disodium] (top concentration 46.0829 µM) | 501 | 487 | 32.7 | 50.6
43 | Cc1ccc([N+](=O)[O-])cc1[S+](=O)([O-])N(C)/N=C/c1cnc2ccc(Br)cn12 [PIK-75] (top concentration 46.0829 µM) | 323 | 348 | 41.7 | 30
44 | COC1=CC(=CC(=C1)C2=CC=C3N=CC\4=C(N(C(=O)\C=C4)C5=CC(=C(C=C5)N6CCNCC6)C(F)(F)F)C3=C2)OC (top concentration 46.0829 µM) | 453 | 376 | 16.9 | 2.73
45 | O=C(Nc1ccccc1Br)N[C@@H]1CCN(c2ccc(C(F)(F)F)cn2)C1 (top concentration 46.0829 µM) | 542 | 475 | 66.9 | 56.4
46 | C\C1=C\N([C@H]2C[C@H](N=[N+]=[N-])[C@@H](CO)O2)C(=O)NC1=O [Zidovudine] (top concentration 46.0829 µM) | 575 | 448 | 15.7 | 2.86
